# Measurements published in US11090391B2, “Protein nanocages with enhanced mucus penetration for targeted tissue and intracellular delivery” (The Johns Hopkins University, priority 2016, dated 2021).
# Experiments:
# 3LL cells [1] = assay: Intracellular trafficking, confocal microscopy; format: cell-based, mouse; conditions: 2 hours after addition
# [2] = test system: 3LL-based tumor spheroids; assay: Penetration of DOX formulations in tumor spheroids; format: cell-based, mouse; conditions: 10 μM DOX concentration
# Experimental: (§1) Multicellular tumor spheroid models consisting of different cancer cell lines were prepared by modifying a previously reported protocol (Friedrich J, et al, Nature Protocols, 4:309-324 (2009)). Briefly, 50 μL DMEM medium containing 1.5% agarose (wt/vol) was plated onto each well of a 96-well microtiter plate under sterile conditions. After the agarose solidifies, the plates were stored at room temperature until use. For the penetration study, 5×10^3 cells were seeded onto the agarose-plated 96-well plates. After 4-5 days culture to obtain multicellular tumor spheroids (400-500 μm in diameter), the tumor spheroids were carefully transferred into glass bottom dishes. […] After the 2-hour incubation, the cells were observed using confocal microscopy with Z-stack imaging at ˜10 μm intervals. […] The 3D images of spheroids were reconstructed by ZEN microscopy software (Carl Zeiss). For analyzing the penetration distance, the radial intensity distribution profile was determined using a custom-made MATLAB code where αtumor is the radius of individual spheroids and r is the radial distance from the spheroid center (r/αtumor=0 and 1 indicate the center and edge of the tumor spheroid, respectively). […] Quantification analysis of signal intensity was performed with ImageJ software (NIH).
# Multicellular tumor spheroids were prepared and post-treatment analyzed as described in Example 4.
# [3] = test system: 3LL cells stably expressing firefly luciferase (3LL-Luc); assay: In vitro cytotoxicity, luciferase activity; format: cell-based, mouse; conditions: 24 hour treatment
# Experimental: Cytotoxicity was evaluated by optical imaging of luciferase expression. 3LL cells stably expressing firefly luciferase (3LL-Luc) were treated with various concentrations of PEG-FTn-DOX and DOX for 24 hour. After adding a D-luciferin solution, the bioluminescence imaging was acquired by a Xenogen IVIS Spectrum optical imaging system (Caliper Life Sciences). The luciferase activity was quantified to determine IC50 by fitting the data with nonlinear regression using GraphPad Prism.
# [4] = test system: 3LL-Luc orthotopic proximal lung cancer; assay: In vivo anti-cancer efficacy, orthotopic proximal lung cancer model; set-up: species or system mouse; conditions: single intratracheal dose 0.25 mg/kg
# Text: To evaluate the efficacy of PEG-FTn-DOX for treating lung airway cancer, an aggressive orthotopic mouse model was established of proximal lung cancer in inbred mice with intact host immunity. The model was established via intratracheal intubation of cancer cells into the tracheal and bronchial epithelium of lung airways (DuPage M, et al., Nature protocols, 4:1064-1072 (2009)), which was relevant to small cell lung cancer and squamous-cell lung cancer. Briefly, female C57BL/6 mice (6-8 weeks) were inoculated with 2.5×10^4 3 LL-Luc cells in 50 μL of DMEM medium via intratracheal intubation using a 22 G×1″ Safelet catheter (Exel International). Three days after the inoculation, bioluminescence signal in the lung was observed using a Xenogen IVIS Spectrum optical imaging system. […] The tumor growth was monitored at various time points using an IVIS imaging system and the bioluminescence signal in lung at different time points was quantitatively analyzed by the Living Image® (Caliper Life Sciences) software. The survival of mice was recorded daily, and data was analyzed by Kaplan-Meier survival curve.
# The luciferase activity of 3LL-Luc was visualized and quantified by a Xenogen IVIS Spectrum optical imaging system. In brief, mice were anesthetized with 2% isoflurane in O2 and received intraperitoneal injection of D-luciferin solution in PBS at a dose of 150 mg/kg. Serial images were acquired between 5 and 20 minutes after the D-luciferin administration, and the bioluminescence signal intensity was quantified by the Living Image® software.
# 3LL cell spheroids = assay: Penetration of Cy5-labeled FTn in multicellular tumor spheroids; format: cell-based, mouse; conditions: for distribution in spheroids (3D-reconstructed confocal images): 40 nM, 2-hour incubation; for mean fluorescence signal intensity in spheroids compared to FTn: FIG. 4A
# Experimental: (§2) See detailed procedures as described in Example 4.
# as §1
# [5] = Airway distribution after intranasal administration; format: in vivo, mouse; conditions: for retention in lung airways (overall fluorescence intensity): compared to non-PEGylated FTn; for coverage of mouse tracheal surfaces: intranasal, 10 minutes after administration
# Text: All experiments were approved by the Institutional Animal Care and Use Committee.
# Female CF-1 mice (6-8 week) were anesthetized under continuous flow of isoflurane (2% in oxygen). […] Ten minutes after administration, mice were sacrificed and the entire lungs (including trachea) were removed and frozen in Tissue-Tek optimal cutting temperature compound (Sakura Finetek). Tracheas were sectioned on a Leica Cryostat (Leica Biosystems) with a section thickness of 10 μm. The sections were stained with Prolong Gold antifade with DAPI (Life technologies), and fluorescence images of the sections were obtained using a Zeiss confocal microscope. To quantify the particle distribution, the acquired images were analyzed by following an image-based analysis method that was previously reported (Mastorakos P, et al., Proc Nat Acad Sci USA, 112(28):8720-5 (2015)). Briefly, at least 10 fluorescence images at 10× magnification were taken for the lungs harvested from individual animals. The images were quantified with ImageJ software. An average coverage and total particles in airways were determined for each mouse, and then these values were averaged over a group of n=4 mice.
# [6] = target: transferrin receptor 1 (TfR 1) on mouse Lewis lung carcinoma (3LL) cells (mouse) (UniProt Q62351)
# [7] = Hydrodynamic diameter by gel-filtration / size exclusion chromatography; format: physicochemical
# Experimental: Briefly, the protein standards with known HD (Bio-Rad), including M1 (thyroglobulin; 669 kDa, 18.8 nm HD), M2 (γ-globulin; 158 kDa, 11.9 nm HD), M3 (ovalbumin; 44 kDa, 6.13 nm HD), M4 (myoglobin; 17 kDa, 3.83 nm HD) and M5 (vitamin B12; 1.35 kDa, 1.48 nm HD), were analyzed using GFC and subsequently a standard curve of HD vs retention time was established.
# [8] = PEG surface density, fluorometric determination; format: physicochemical; conditions: for PEG2k density: reassembled FTn by % PEGylated protein
# Experimental: The solution was placed on a rotary incubator for 4 hours and then concentrated by centrifugation (Amicon Ultra-0.5 mL 30 K MWCO; Millipore). […] The density was fluorometrically determined (Suk J S, et al., Advanced Drug Delivery Reviews, 99(Pt A):28-51, Epub 2015).
# The ratio [Γ/SA] of total unconstrained PEG surface coverage area [Γ] to total particle surface area [SA] determines the surface PEG conformation: low-density mushroom and high-density brush regimes when [Γ/SA]<1 and [Γ/SA]≥1, respectively (Xu Q, et al., ACS Nano, 9. 9217-9227 (2015); Auguste D T, Biomaterials, 27, 2599-2608 (2006)). Briefly, the surface area occupied by one unconstrained PEG chain was calculated by random-walk statistics and given by a sphere of diameter ξ: ξ=0.76 m^1/2[Å], where m is MW of PEG chain, and the surface area occupied by one PEG molecule can be determined by π(ξ/2)^2. Thus, the surface area occupied by unconstrained PEG of MWs 10, 5 and 2 kDa is 45, 23 and 9 nm^2, respectively. The total unconstrained PEG surface area coverage [Γ] was then calculated by multiplying the area occupied at the surface per PEG chain by the total number of PEG chains per protein nanocage.
# [9] = Colloidal stability by agarose gel electrophoresis (PBS, 10% human plasma); format: physicochemical; conditions: 0.5% agarose gel, 10% human plasma 1 hour 37° C.
# Experimental: Nanocages reassembled in phosphate buffered saline (PBS) with varying % of PEGylated protein were analyzed by electrophoresis within a 0.5% agarose gel to determine any aggregation.
# A549 = assay: Cell uptake of FTn, flow cytometry; format: cell-based, human; conditions: TfR 1-mediated
# Experimental: (§3) After washing with cold PBS, cells were analyzed using an AccuriC6 flow cytometer (BD Biosciences). […] The data was fitted to a binding curve via non-linear regression method using GraphPad Prism (GraphPad Software).
# 3LL cells [10] = assay: Cell uptake / TfR 1-dependent binding of Cy5-labeled FTn formulations, flow cytometry; format: cell-based, mouse
# Experimental: as §2
# Subsequently, cells were incubated with Vibrant® DiO cell labeling solution (Life technologies) for 10 minutes following manufacturer's protocol (sub-cellular localization at cell membranes & lipids). After three times washing with PBS, the cells were fixed with Z-fix solution (Anatech) for 15 min, followed by 1.5 μg/mL DAPI staining at room temperature.
# as §3
# [11] = test system: TfR 1-positive lung cancer cells; assay: Uptake of FTn/FTn-PEG2k by panel of cell lines; format: cell-based; conditions: C2C12, NCI-H69, H69-AR, SW210.5, A549, NCI-H460, NCI-H1975, PC 9
# Experimental: as §3
# TfR 1 expression was determined by western blot analysis with anti-TfR 1 antibody (Ab) (BD Pharmingen) in various cell lines in vitro, including mouse Lewis lung carcinoma (3LL) cells, mouse myoblast (C2C12, a TfR 1-negative cell line as the negative control), human small cell lung cancer cells (NCI-H69, H69-AR, and SW210.5), and human non-small cell lung cancer cells (A549, NCI-H460, NCI-H1975, and PC 9). The expression was also determined when 3LL, A549, PC9, and SW210.5 cells were incubated in 20% oxygen and 1% oxygen (i.e. hypoxic condition).
# [12] = Physicochemical properties (hydrodynamic diameter, ζ-potential, drug loading)
# Experimental: The DOX conjugated PEG-FTn is denoted as FTn/FTn-PEG2k/DOX. […] The mixture was incubated for 1 hour and 1.5 mg EDC was added to activate a carboxyl group of each DOX-linker conjugate. The resultant compounds were analyzed using high-performance liquid chromatography (HPLC, Varian Inc.) equipped with a C18 reverse phase column. […] The final product was extensively dialyzed (10 kDa MWCO; Thermo Scientific) and purified with a PD-10 column.
# [13] = test system: orthotopic 3LL lung cancer; conditions: mouse, in vivo
# Experimental: The mice were sacrificed 2 hour post-administration, and the entire lungs were isolated and frozen slices were prepared.
molecule,measurement,setting,value
"COc1cccc2c1C(=O)c1c(O)c3c(c(O)c1C2=O)C[C@@](O)(C(=O)CO)C[C@@H]3O[C@H]1C[C@H](N)[C@H](O)[C@H](C)O1 [DOX, doxorubicin, reference compound]",intracellular localization of DOX,3LL cells [1],primarily localized in the cell nuclei
same,distribution in spheroids (3D confocal images),[2],remained primarily at the periphery of the spheroids
same,IC50,[3],480 nM
same,median survival,[4],18 days
FTn/FTn-PEG5k: hybrid FTn with 1:1 molar ratio of FTn and FTn conjugated with 5 kDa PEG,distribution in spheroids (3D-reconstructed confocal images),3LL cell spheroids,primarily near the periphery of tumor spheroids
same,mean fluorescence signal intensity in spheroids compared to FTn,3LL cell spheroids,significantly lower intensity
same,retention in lung airways (overall fluorescence intensity),[5],retained at higher levels
same,coverage of mouse tracheal surfaces,[5],80±8%
hybrid nanocage FTn/FTn-PEG2k (50% ferritin and 50% ferritin PEGylated with 2 kDa PEG) (ligand),"relative uptake (%) by 3LL cells, non-PEGylated FTn = 100% (% of the uptake of non-PEGylated FTn)",[6],> 80
"FTn: ferritin heavy-chain nanocages self-assembled from recombinant human ferritin heavy chain, without PEG",diameter from size exclusion chromatography,"[7]; pH 2.0, broad peak",1.8-5.4 nm
same,diameter from size exclusion chromatography,"[7]; pH 7.4, single peak",13.2 nm
same,PEG2k density,[8],0 #/nm^2
same,aggregation during electrophoresis (colloidal stability),[9],aggregated and were stuck in the wells
same,uptake by A549,A549,taken up
same,distribution in spheroids (3D-reconstructed confocal images),3LL cell spheroids,uniformly distributed throughout the entire spheroids including the core
same,mean fluorescence signal intensity in spheroids in presence of anti-TfR 1 Ab,"3LL cell spheroids; 10-fold molar excess, 1 hour",significantly decreased
same,coverage of mouse tracheal surfaces,[5],50±9%
same,distribution in airways,[5]; mucus-covered large airways (trachea),sparsely distributed in airways
FTn/FTn-PEG10k: hybrid FTn with 1:1 molar ratio of FTn and FTn conjugated with 10 kDa PEG,uptake compared to the uptake of FTn,3LL cells [10]; FIG. 3C,significantly reduced
same,distribution in spheroids (3D-reconstructed confocal images),3LL cell spheroids,primarily near the periphery of tumor spheroids
same,mean fluorescence signal intensity in spheroids compared to FTn,3LL cell spheroids,significantly lower intensity
same,coverage of mouse tracheal surfaces,[5],74±8%
"FTn-Cy5: FTn labeled with fluorescent dye Cy5, ~23 dye molecules per FTn",uptake in the presence of anti-TfR 1 antibody,3LL cells [10]; 10-fold molar excess anti-TfR 1 Ab,significantly reduced uptake
same,penetration in presence of excess unlabeled FTn,"3LL cell spheroids; 10-fold molar excess, 1 hour",reduced significantly
FTn/FTn-PEG2k: hybrid nanocage formed with 50% ferritin and 50% PEGylated ferritin using PEG2k,PEG surface density,"[8]; hybrid nanocage, fluorometric measurement",~0.24±0.03 PEG/nm^2
same,PEG2k density,[8],0.21 #/nm^2
same,tumor cell uptake compared to non-PEGylated FTn,"3LL cells [10]; 3LL cells, 2 kDa PEG, non-PEGylated FTn = 100%",more than 80%
same,uptake by TfR 1-positive cells,[11],efficiently taken up
same,distribution in spheroids (3D-reconstructed confocal images),3LL cell spheroids,uniformly distributed throughout the entire spheroids including the core
same,mean fluorescence signal intensity in spheroids in presence of anti-TfR 1 Ab,"3LL cell spheroids; 10-fold molar excess, 1 hour",significantly decreased
same,mean fluorescence signal intensity in spheroids compared to FTn,3LL cell spheroids,indistinguishable
same,retention in lung airways (overall fluorescence intensity),[5],retained at higher levels
same,coverage of mouse tracheal surfaces,[5],77±8%
same,Hydrodynamic diameter,[12],13.6 ± 1.3 nm
same,ζ-potential,[12],−4.1 ± 1.1 mV
same,colocalization with lysosomes,3LL cells [1],colocalized with lysosomes
same,localization in orthotopic lung cancer,[13],found preferentially within the tumor tissue
